Laboratory results as given in ChEMBL document CHEMBL1201862, “PubChem BioAssay data set” (2004).
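Exposure lasted 48 hours, with cells grown in 96-well plates and compounds tested at five concentrations. Abbreviation: GI50, concentration required for 50% inhibition of growth.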 Active and inactive are the calls of the source. Cut-off read from the data, not from the text of the source: active = GI50 up to about 1.1 µM and inactive = higher.

Columns and labels:
Assay in all cases: NCI-60 cell line screen, 48 h
CAKI-1 = test system: CAKI-1
CCRF-CEM = test system: CCRF-CEM
COLO 205 = test system: COLO 205
HCT-15 = test system: HCT-15
HOP-62 = test system: HOP-62
HOP-92 = test system: HOP-92
HT-29 = test system: HT-29
IGROV-1 = test system: IGROV-1
KM12 = test system: KM12
LOX IMVI = test system: LOX IMVI
MOLT-4 = test system: MOLT-4
OVCAR-4 = test system: OVCAR-4
OVCAR-8 = test system: OVCAR-8
SF-268 = test system: SF-268
SF-539 = test system: SF-539
SK-MEL-28 = test system: SK-MEL-28
SNB-19 = test system: SNB-19
SNB-75 = test system: SNB-75
SW-620 = test system: SW-620
UACC-62 = test system: UACC-62

SMILES | GI50 (CAKI-1) | GI50 (CCRF-CEM) | GI50 (COLO 205) | GI50 (HCT-15) [µM] | GI50 (HOP-62) | GI50 (HOP-92) | GI50 (HT-29) | GI50 (IGROV-1) | GI50 (KM12) | GI50 (LOX IMVI) | GI50 (MOLT-4) | GI50 (OVCAR-4) | GI50 (OVCAR-8) | GI50 (SF-268) | GI50 (SF-539) | GI50 (SK-MEL-28) | GI50 (SNB-19) | GI50 (SNB-75) | GI50 (SW-620) | GI50 (UACC-62)
CCCCCCCCCOCC(COP(=O)([O-])OCC[N+](C)(C)C)OC (centres undefined) | > 100 µM (inactive) | > 100 µM (inactive) | > 100 µM (inactive) | > 100 | > 100 µM (inactive) | > 100 µM (inactive) | > 100 µM (inactive) | > 65.6 µM (inactive) | > 100 µM (inactive) | > 100 µM (inactive) | > 100 µM (inactive) | > 100 µM (inactive) | > 100 µM (inactive) | > 100 µM (inactive) | > 100 µM (inactive) | > 100 µM (inactive) | > 100 µM (inactive) | > 100 µM (inactive) | > 100 µM (inactive) | > 100 µM (inactive)
Cc1ccc2c(=O)c3ccccc3sc2c1 | 45.4 µM (inactive) | > 100 µM (inactive) | > 100 µM (inactive) | – | > 100 µM (inactive) | – | 77.3 µM (inactive) | > 100 µM (inactive) | 53.7 µM (inactive) | > 100 µM (inactive) | 72.8 µM (inactive) | > 100 µM (inactive) | > 100 µM (inactive) | > 100 µM (inactive) | > 100 µM (inactive) | > 100 µM (inactive) | 66.4 µM (inactive) | – | > 100 µM (inactive) | > 100 µM (inactive)
NS(=O)(=O)C1CCCCC1C(=O)NNC(=O)C(=O)Nc1nnc(S)[nH]1 (centres undefined) | > 100 µM (inactive) | > 100 µM (inactive) | > 100 µM (inactive) | > 100 | > 100 µM (inactive) | > 100 µM (inactive) | > 100 µM (inactive) | > 100 µM (inactive) | > 100 µM (inactive) | > 100 µM (inactive) | > 100 µM (inactive) | > 100 µM (inactive) | > 100 µM (inactive) | > 100 µM (inactive) | > 100 µM (inactive) | > 100 µM (inactive) | > 100 µM (inactive) | > 100 µM (inactive) | > 100 µM (inactive) | > 100 µM (inactive)
CO/N=C1/c2sccc2[C@H](NC(=O)C(F)(F)F)[C@@H]1O | > 100 µM (inactive) | > 100 µM (inactive) | > 100 µM (inactive) | > 100 | > 100 µM (inactive) | > 100 µM (inactive) | > 100 µM (inactive) | > 100 µM (inactive) | – | > 100 µM (inactive) | > 100 µM (inactive) | > 100 µM (inactive) | > 100 µM (inactive) | > 100 µM (inactive) | > 100 µM (inactive) | > 100 µM (inactive) | – | > 100 µM (inactive) | > 100 µM (inactive) | > 100 µM (inactive)
O=C(N/N=C\c1cccc2ccccc12)Nc1ccccc1 | > 100 µM (inactive) | > 100 µM (inactive) | > 100 µM (inactive) | > 100 | > 100 µM (inactive) | > 100 µM (inactive) | > 100 µM (inactive) | > 100 µM (inactive) | > 100 µM (inactive) | > 100 µM (inactive) | > 100 µM (inactive) | > 100 µM (inactive) | > 100 µM (inactive) | – | – | > 100 µM (inactive) | > 100 µM (inactive) | > 100 µM (inactive) | > 100 µM (inactive) | > 100 µM (inactive)
CCOC(=O)NC(=O)c1cn(CCN(CCO)C(=O)NCCCCCCNC(=O)N(CCO)CCn2cc(C(=O)NC(=O)OCC)c(=O)[nH]c2=O)c(=O)[nH]c1=O | > 100 µM (inactive) | > 100 µM (inactive) | > 100 µM (inactive) | > 100 | > 100 µM (inactive) | > 100 µM (inactive) | > 61 µM (inactive) | > 100 µM (inactive) | > 100 µM (inactive) | > 100 µM (inactive) | > 100 µM (inactive) | > 100 µM (inactive) | > 100 µM (inactive) | > 100 µM (inactive) | > 100 µM (inactive) | > 100 µM (inactive) | > 100 µM (inactive) | > 100 µM (inactive) | > 100 µM (inactive) | > 100 µM (inactive)
CCCCCCc1ccc(O)cc1O [HEXYLRESORCINOL] | – | 32 µM (inactive) | > 100 µM (inactive) | 59.8 | 57.8 µM (inactive) | 30.6 µM (inactive) | > 100 µM (inactive) | 45.5 µM (inactive) | 62.2 µM (inactive) | > 100 µM (inactive) | 22.9 µM (inactive) | 48.5 µM (inactive) | > 69 µM (inactive) | 87.3 µM (inactive) | > 80.7 µM (inactive) | > 71.9 µM (inactive) | 43.7 µM (inactive) | 28.8 µM (inactive) | > 100 µM (inactive) | 34.4 µM (inactive)
COc1ccc(-c2c3ccccc3c(-c3ccc(OCCCCCBr)cc3)c3ccccc23)cc1 | > 100 µM (inactive) | > 100 µM (inactive) | > 100 µM (inactive) | > 100 | > 100 µM (inactive) | > 100 µM (inactive) | > 100 µM (inactive) | > 100 µM (inactive) | > 100 µM (inactive) | > 100 µM (inactive) | > 100 µM (inactive) | > 100 µM (inactive) | > 100 µM (inactive) | > 100 µM (inactive) | > 100 µM (inactive) | > 100 µM (inactive) | > 100 µM (inactive) | – | > 100 µM (inactive) | > 100 µM (inactive)
CC(=O)CC(=O)CCC(=O)O [SUCCINYLACETONE] | > 100 µM (inactive) | – | > 100 µM (inactive) | > 100 | – | < 0.01 µM (active) | > 100 µM (inactive) | > 100 µM (inactive) | 47.4 µM (inactive) | > 100 µM (inactive) | 57.3 µM (inactive) | – | > 100 µM (inactive) | > 100 µM (inactive) | > 100 µM (inactive) | > 100 µM (inactive) | > 100 µM (inactive) | < 0.01 µM (active) | > 100 µM (inactive) | –
O=[PH](O)c1cccs1 | > 100 µM (inactive) | > 100 µM (inactive) | > 100 µM (inactive) | > 100 | – | 57 µM (inactive) | > 100 µM (inactive) | > 100 µM (inactive) | – | > 100 µM (inactive) | > 100 µM (inactive) | – | > 100 µM (inactive) | > 100 µM (inactive) | > 100 µM (inactive) | > 100 µM (inactive) | > 100 µM (inactive) | – | > 100 µM (inactive) | > 100 µM (inactive)
CCCCCCCCCCCCCCCC(=O)OC1C(O)C(CO)OC(OC)C1NC(=O)N(CCCl)N=O (centres undefined) | 32 µM (inactive) | – | 18.7 µM (inactive) | 23.7 | 15.4 µM (inactive) | – | 12.8 µM (inactive) | 17.4 µM (inactive) | 16.5 µM (inactive) | 11.4 µM (inactive) | 3.08 µM (inactive) | 20.6 µM (inactive) | 17.8 µM (inactive) | 2.64 µM (inactive) | 1.08 µM (active) | 14.2 µM (inactive) | 10.4 µM (inactive) | 12 µM (inactive) | 10.9 µM (inactive) | 2 µM (inactive)
CC(=O)Nc1ccc2[nH]c(C(=O)N3CC(CCl)c4c3cc(N)c3ccccc43)cc2c1 (centres undefined) | 0.0129 µM (active) | < 0.01 µM (active) | 0.0139 µM (active) | 0.0267 | < 0.0152 µM (active) | < 0.0191 µM (active) | < 0.0127 µM (active) | 0.0143 µM (active) | < 0.01 µM (active) | < 0.0115 µM (active) | < 0.0115 µM (active) | < 0.01 µM (active) | < 0.0133 µM (active) | < 0.01 µM (active) | 0.0129 µM (active) | 0.0161 µM (active) | < 0.0217 µM (active) | < 0.01 µM (active) | 0.0118 µM (active) | 0.0101 µM (active)
COc1ccc(N2CN(C)CSC2=S)cc1 | > 100 µM (inactive) | 13.1 µM (inactive) | > 100 µM (inactive) | 76 | 25.9 µM (inactive) | – | > 100 µM (inactive) | 77.6 µM (inactive) | > 100 µM (inactive) | 86.7 µM (inactive) | 76.7 µM (inactive) | > 100 µM (inactive) | > 100 µM (inactive) | 97.9 µM (inactive) | > 100 µM (inactive) | > 100 µM (inactive) | > 100 µM (inactive) | > 100 µM (inactive) | 43 µM (inactive) | > 100 µM (inactive)
O=C1CCC(c2ccc(Cl)cc2)=NN1c1nsc2ccccc12 | – | 17.7 µM (inactive) | 36.5 µM (inactive) | > 10 | 39.2 µM (inactive) | 21.5 µM (inactive) | 30.1 µM (inactive) | 39.4 µM (inactive) | 29.2 µM (inactive) | > 10 µM (inactive) | 19.7 µM (inactive) | 36.1 µM (inactive) | 31.8 µM (inactive) | 38.9 µM (inactive) | 48.4 µM (inactive) | 31.6 µM (inactive) | 34.4 µM (inactive) | 5.77 µM (inactive) | 58.1 µM (inactive) | 43.1 µM (inactive)
O=C1CNC(=O)N1 [HYDANTOIN] | > 1120 µM (inactive) | 681 µM (inactive) | > 1120 µM (inactive) | > 1120 | > 1120 µM (inactive) | > 11.2 µM (inactive) | > 1120 µM (inactive) | > 1120 µM (inactive) | > 1120 µM (inactive) | > 1120 µM (inactive) | > 1120 µM (inactive) | > 1120 µM (inactive) | > 1120 µM (inactive) | > 1120 µM (inactive) | > 1120 µM (inactive) | > 1120 µM (inactive) | > 1120 µM (inactive) | 177 µM (inactive) | > 1120 µM (inactive) | > 1120 µM (inactive)
